Experimental data reported in patent publication US20230085307A1, “PYRIDAZINONE COMPOUND AND HERBICIDE” (NISSAN CHEMICAL CORPORATION, priority 2019, published 2023).

Each molecule was assayed on rice flat sedge (assay: Test Example 3: herbicidal effect by foliage application, Wagner pot (Table 18, symbol E)). Details: 320 g/ha.
Type: in vivo, rice flat sedge (Cyperus iria)
Method in brief: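 Plants were sown in alluvial soil held under 0.1–0.5 cm standing water and grown 14 days in a greenhouse at 25–30 °C. An emulsifiable formulation, water-diluted to the set dose, was then sprayed onto the foliage, and effects were scored three weeks later using previously defined criteria.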
For `CCOc1ccccc1-c1sc2cc(C)c(C)cc2c1-c1c(O)c(C)nn(C)c1=O` [5-094], the “herbicidal effect on rice flat sedge (E)” value was 4 (Herbicidal rate of 70% or more and less than 90%).

Same assay, conditions: amount of applied herbicide 320 g/ha
For `COc1ccccc1-c1sc2c(Br)c(OC)ccc2c1-c1c(O)c(C)nn(C)c1=O` [7-002], the “Herbicidal effect on E (rice flat sedge), foliage application” value was 4 (Herbicidal rate of 70% or more and less than 90%).

What follows are molecules tested on velvetleaf (assay: Test Example 4: herbicidal effect by soil treatment (Table 19, symbol M)). Details: amount of applied herbicide 320 g/ha.
Type: in vivo, velvetleaf (Abutilon theophrasti)
Method in brief: (§1)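 Pre-emergence style soil spray: seeds under ~1.5 cm sterilized diluvial soil received a uniform coat of emulsion diluted to the predetermined herbicide amount. Greenhouse 25–30° C; readout at week three on previously defined criteria.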
In the case of `CCOc1ccccc1-c1sc2cc(C)c(C)cc2c1-c1c(O)c(C)nn(C)c1=O` [5-094], the “M: velvetleaf, herbicidal effect grade” value is reported as 1 (Herbicidal rate of 5% or more and less than 20%).
With `COc1ccccc1-c1sc2c(Br)c(OC)ccc2c1-c1c(O)c(C)nn(C)c1=O` [7-002] the “M: velvetleaf, herbicidal effect grade” value was 1 (Herbicidal rate of 5% or more and less than 20%).

These molecules were tested on lambsquarters (assay: Test Example 5: herbicidal effect by foliage application, plastic box (Table 20, symbol O)). Details: foliage application, 320 g/ha, three weeks after application.
Type: in vivo, lambsquarters (Chenopodium album)
Method in brief: (§2)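 Plants were sown into sterilized diluvial soil under about 1.5 cm cover and kept in a greenhouse at 25° C. to 30° C. Fourteen days on, foliage received an even spray of the diluted emulsion. Herbicidal or crop effect was judged three weeks afterwards.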
`CCOc1ccccc1-c1sc2cc(C)c(C)cc2c1-c1c(O)c(C)nn(C)c1=O` [5-094] was tested, and the “herbicidal effect on lambsquarters (O)” value was 4 (Herbicidal rate of 70% or more and less than 90%).
`COc1ccccc1-c1sc2c(Br)c(OC)ccc2c1-c1c(O)c(C)nn(C)c1=O` [7-002] was tested, and the “herbicidal effect on lambsquarters (O)” value was 4 (Herbicidal rate of 70% or more and less than 90%).

These molecules were tested on lambsquarters (assay: Test Example 4: herbicidal effect by soil treatment (Table 19, symbol O)). Details: amount of applied herbicide 320 g/ha.
Type: in vivo, lambsquarters (Chenopodium album)
Method in brief: as §1
With `CCOc1ccccc1-c1sc2cc(C)c(C)cc2c1-c1c(O)c(C)nn(C)c1=O` [5-094] the “O: lambsquarters, herbicidal effect grade” value was 3 (Herbicidal rate of 40% or more and less than 70%).
In the case of `COc1ccccc1-c1sc2c(Br)c(OC)ccc2c1-c1c(O)c(C)nn(C)c1=O` [7-002], the “O: lambsquarters, herbicidal effect grade” value is reported as 4 (Herbicidal rate of 70% or more and less than 90%).

What follows are molecules tested on Italian ryegrass (assay: Test Example 4: herbicidal effect by soil treatment (Table 19, symbol K)). Details: amount of applied herbicide 320 g/ha.
Type: in vivo, Italian ryegrass (Lolium multiflorum)
Method in brief: as §1
For `CCOc1ccccc1-c1sc2cc(C)c(C)cc2c1-c1c(O)c(C)nn(C)c1=O` [5-094], the “K: Italian ryegrass, herbicidal effect grade” value was 3 (Herbicidal rate of 40% or more and less than 70%).
With `COc1ccccc1-c1sc2c(Br)c(OC)ccc2c1-c1c(O)c(C)nn(C)c1=O` [7-002] the “K: Italian ryegrass, herbicidal effect grade” value was 0 (Herbicidal rate of 5% or less (almost no effect)).

These molecules were tested on windgrass (assay: Test Example 5: herbicidal effect by foliage application, plastic box (Table 20, symbol L)). Details: foliage application, 320 g/ha, three weeks after application.
Type: in vivo, windgrass (Apera spica-venti)
Method in brief: as §2
In the case of `CCOc1ccccc1-c1sc2cc(C)c(C)cc2c1-c1c(O)c(C)nn(C)c1=O` [5-094], the “herbicidal effect on windgrass (L)” value is reported as 4 (Herbicidal rate of 70% or more and less than 90%).
With `COc1ccccc1-c1sc2c(Br)c(OC)ccc2c1-c1c(O)c(C)nn(C)c1=O` [7-002] the “herbicidal effect on windgrass (L)” value was 5 (Herbicidal rate of 90% or more (almost completely withered)).

The molecules below were run on oval-leafed pondweed (assay: Test Example 1: herbicidal activity, application before weed generation under submerged conditions (Table 16, symbol C)). Details: amount of applied herbicide 320 g/ha.
Type: in vivo, oval-leafed pondweed (Monochoria vaginalis)
Method in brief: (§3)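 Alluvial soil was flooded to 4 cm depth, weed seeds were sown mixed and 2.5-leaf rice seedlings were transplanted. On sowing day, the compound's emulsion, diluted in water to a set dose, was applied to the water surface. Plants grew at 25–30 °C and were scored 0–5 after three weeks.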
In the case of `CCOc1ccccc1-c1sc2cc(C)c(C)cc2c1-c1c(O)c(C)nn(C)c1=O` [5-094], the “Herbicidal effect, C: oval-leafed pondweed” value is reported as 4 (Herbicidal rate of 70% or more and less than 90%).
`COc1ccccc1-c1sc2c(Br)c(OC)ccc2c1-c1c(O)c(C)nn(C)c1=O` [7-002] was tested, and the “Herbicidal effect, C: oval-leafed pondweed” value was 3 (Herbicidal rate of 40% or more and less than 70%).

These molecules were tested on velvetleaf (assay: Test Example 5: herbicidal effect by foliage application, plastic box (Table 20, symbol M)). Details: foliage application, 320 g/ha, three weeks after application.
Type: in vivo, velvetleaf (Abutilon theophrasti)
Method in brief: as §2
For `CCOc1ccccc1-c1sc2cc(C)c(C)cc2c1-c1c(O)c(C)nn(C)c1=O` [5-094], the “herbicidal effect on velvetleaf (M)” value was 4 (Herbicidal rate of 70% or more and less than 90%).
For `COc1ccccc1-c1sc2c(Br)c(OC)ccc2c1-c1c(O)c(C)nn(C)c1=O` [7-002], the “herbicidal effect on velvetleaf (M)” value was 4 (Herbicidal rate of 70% or more and less than 90%).

The molecules below were run on Japanese bulrush (assay: Test Example 2: herbicidal activity, application during weed generation under submerged conditions (Table 17, symbol B)). Details: AAH 320 g/ha; application during weed generation, submerged conditions.
Type: in vivo, Japanese bulrush (Schoenoplectus juncoides)
Method in brief: (§4)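 Herbicide emulsion, diluted with water to the chosen amount, is applied onto 4 cm floodwater over alluvial soil where the weeds were co-sown and raised at 25–30° C. Application timing: 1–2 leaves. Assessment: three weeks afterwards.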
With `CCOc1ccccc1-c1sc2cc(C)c(C)cc2c1-c1c(O)c(C)nn(C)c1=O` [5-094] the “herbicidal effect rating, B: Japanese bulrush” value was 3 (Herbicidal rate of 40% or more and less than 70%).
With `COc1ccccc1-c1sc2c(Br)c(OC)ccc2c1-c1c(O)c(C)nn(C)c1=O` [7-002] the “herbicidal effect rating, B: Japanese bulrush” value was 2 (Herbicidal rate of 20% or more and less than 40%).

What follows are molecules tested on Japanese bulrush (assay: Test Example 1: herbicidal activity, application before weed generation under submerged conditions (Table 16, symbol B)). Details: amount of applied herbicide 320 g/ha.
Type: in vivo, Japanese bulrush (Schoenoplectus juncoides)
Method in brief: as §3
`CCOc1ccccc1-c1sc2cc(C)c(C)cc2c1-c1c(O)c(C)nn(C)c1=O` [5-094] was tested, and the “Herbicidal effect, B: Japanese bulrush” value was 4 (Herbicidal rate of 70% or more and less than 90%).
`COc1ccccc1-c1sc2c(Br)c(OC)ccc2c1-c1c(O)c(C)nn(C)c1=O` [7-002] was tested, and the “Herbicidal effect, B: Japanese bulrush” value was 3 (Herbicidal rate of 40% or more and less than 70%).

What follows are molecules tested on wild oat (assay: Test Example 4: herbicidal effect by soil treatment (Table 19, symbol I)). Details: amount of applied herbicide 320 g/ha.
Type: in vivo, wild oat (Avena fatua)
Method in brief: as §1
In the case of `CCOc1ccccc1-c1sc2cc(C)c(C)cc2c1-c1c(O)c(C)nn(C)c1=O` [5-094], the “I: wild oat, herbicidal effect grade” value is reported as 0 (Herbicidal rate of 5% or less (almost no effect)).
For `COc1ccccc1-c1sc2c(Br)c(OC)ccc2c1-c1c(O)c(C)nn(C)c1=O` [7-002], the “I: wild oat, herbicidal effect grade” value was 0 (Herbicidal rate of 5% or less (almost no effect)).

The molecules below were run on wild oat (assay: Test Example 5: herbicidal effect by foliage application, plastic box (Table 20, symbol I)). Details: foliage application, 320 g/ha, three weeks after application.
Type: in vivo, wild oat (Avena fatua)
Method in brief: as §2
In the case of `CCOc1ccccc1-c1sc2cc(C)c(C)cc2c1-c1c(O)c(C)nn(C)c1=O` [5-094], the “herbicidal effect on wild oat (I)” value is reported as 1 (Herbicidal rate of 5% or more and less than 20%).
For `COc1ccccc1-c1sc2c(Br)c(OC)ccc2c1-c1c(O)c(C)nn(C)c1=O` [7-002], the “herbicidal effect on wild oat (I)” value was 0 (Herbicidal rate of 5% or less (almost no effect)).

The molecules below were run on barnyard grass (assay: Test Example 5: herbicidal effect by foliage application, plastic box (Table 20, symbol H)). Details: foliage application, 320 g/ha, three weeks after application.
Type: in vivo, barnyard grass (Echinochloa crus-galli)
Method in brief: as §2
For `CCOc1ccccc1-c1sc2cc(C)c(C)cc2c1-c1c(O)c(C)nn(C)c1=O` [5-094], the “herbicidal effect on barnyard grass (H)” value was 5 (Herbicidal rate of 90% or more (almost completely withered)).
With `COc1ccccc1-c1sc2c(Br)c(OC)ccc2c1-c1c(O)c(C)nn(C)c1=O` [7-002] the “herbicidal effect on barnyard grass (H)” value was 5 (Herbicidal rate of 90% or more (almost completely withered)).

These molecules were tested on Italian ryegrass (assay: Test Example 5: herbicidal effect by foliage application, plastic box (Table 20, symbol K)). Details: foliage application, 320 g/ha, three weeks after application.
Type: in vivo, Italian ryegrass (Lolium multiflorum)
Method in brief: as §2
`CCOc1ccccc1-c1sc2cc(C)c(C)cc2c1-c1c(O)c(C)nn(C)c1=O` [5-094] was tested, and the “herbicidal effect on Italian ryegrass (K)” value was 5 (Herbicidal rate of 90% or more (almost completely withered)).
For `COc1ccccc1-c1sc2c(Br)c(OC)ccc2c1-c1c(O)c(C)nn(C)c1=O` [7-002], the “herbicidal effect on Italian ryegrass (K)” value was 5 (Herbicidal rate of 90% or more (almost completely withered)).

What follows are molecules tested on persian speedwell (assay: Test Example 4: herbicidal effect by soil treatment (Table 19, symbol R)). Details: amount of applied herbicide 320 g/ha.
Type: in vivo, Persian speedwell (Veronica persica)
Method in brief: as §1
With `CCOc1ccccc1-c1sc2cc(C)c(C)cc2c1-c1c(O)c(C)nn(C)c1=O` [5-094] the “R: persian speedwell, herbicidal effect grade” value was 3 (Herbicidal rate of 40% or more and less than 70%).
With `COc1ccccc1-c1sc2c(Br)c(OC)ccc2c1-c1c(O)c(C)nn(C)c1=O` [7-002] the “R: persian speedwell, herbicidal effect grade” value was 3 (Herbicidal rate of 40% or more and less than 70%).

Each molecule was assayed on late watergrass (assay: Test Example 2: herbicidal activity, application during weed generation under submerged conditions (Table 17, symbol A)). Details: AAH 320 g/ha; application during weed generation, submerged conditions.
Type: in vivo, late watergrass (Echinochloa oryzicola)
Method in brief: as §4
In the case of `CCOc1ccccc1-c1sc2cc(C)c(C)cc2c1-c1c(O)c(C)nn(C)c1=O` [5-094], the “herbicidal effect rating, A: late watergrass” value is reported as 2 (Herbicidal rate of 20% or more and less than 40%).
In the case of `COc1ccccc1-c1sc2c(Br)c(OC)ccc2c1-c1c(O)c(C)nn(C)c1=O` [7-002], the “herbicidal effect rating, A: late watergrass” value is reported as 3 (Herbicidal rate of 40% or more and less than 70%).
